Laboratory results as given in US12527794B2, “Compositions, formulations, and methods for hair treatment” (Oddity Labs, LLC, priority 2021, dated 2026).

Columns and labels:
Nrf2-ARE pathway = test: KeratinoSens Nrf2-ARE luciferase reporter assay; type: cell-based; details: cinnamic aldehyde as known sensitizing compound
Experimental: The Nrf2-ARE pathway is a master regulator of cytoprotective responses to oxidative stress, and is an early indicator of skin sensitization. Nrf2 (nuclear factor erythroid 2-related factor) is a transcription factor that binds to antioxidant responsive elements (ARE). By fusing ARE to the light-producing luciferase gene, a KeratinoSens Nrf2-ARE reporter assay was performed whereby luciferase signal is directly correlated to Nrf2-ARE pathway activation.
Normalized ARE-luciferase activity was measured using a known sensitizing compound (cinnamic aldehyde) and exemplary compounds.

bacteria = test: SOS chromotest (β-galactosidase activity); type: cell-based; details: varying concentrations; 4-NQ as known genotoxin
Experimental: The SOS chromotest is a well-established bacteria-based test for genotoxicity.
(§1) The safety/toxicology profiles of a compound or salt of the present disclosure was evaluated via a series of in vitro genotoxicity assays, including the SOS-chromotest to determine bacterial genotoxicity, and the TK.6 micronucleus assay to determine chromosomal damage and forward mutations. Standard reactive oxygen species (ROS) and caspase 3/7 assay were conducted to determine general cellular toxicity. Moreover, a series of sensitization tests were conducted to predict any potential skin sensitivity. These include the direct peptide reactivity assay to evaluate haptenization, the KeratinoSens reporter assay to determine potential sensitivity via the activation of a cytoprotective pathway, and an immunological assay using human immature monocyte-derived dendritic cells to evaluate any potential immunogenicity.

HepG2 cells = test: Caspase 3/7 activity in HepG2 cells; type: cell-based; details: HepG2, >2-log concentration range
Experimental: (§2) Cells were treated with either the exemplary compounds or vehicle control containing correspondingly % v/v-matched amounts of DMSO spanning a >2-log concentration range. Data represents mean±s.d. and representative of at least 2 experimental replicates.
as §2, with “HepG2 cells are an immortalized liver cell line commonly used to study apoptosis induced by small molecules. Cells” for “Cells”

TK.6 lymphoblasts = test: TK.6 micronucleus assay; type: cell-based
Experimental: as §1
TK.6 lymphoblasts are a well-studied cell line commonly used for gene mutation analyses. They are heterozygous for the thymidine kinase gene (TK) and enable the detection of forward mutations and chromosomal damage, which manifests as micronuclei and are detectable via flow cytometry.
TK.6 cells were dosed with the exemplary compounds or a vehicle control (0.1% v/v DMSO) and cultured with or without S9 metabolic activation for 24 hr. […] Methyl methanesulfonate, a known genotoxic, alkylating agent was used as a positive control for micronuclei detection.
The micronucleus assay was also performed to determine if the compounds are genotoxic by evaluating the presence of micronuclei. […] I-17 elicited genotoxicity at >3.125 μg/mL.

[1] = tested on: human hair follicle dermal papilla cells (hFDPC); test: Human follicle dermal papilla cell (hFDPC) proliferation, cell viability assay; type: cell-based; details: hFDPCs supplemented with BIO, BMP-2 and FGFβ
Experimental: The ability of a compound or salt of the present disclosure to increase proliferation of human hair follicle dermal papilla cells (hFDPC) was tested using a cell viability assay, such as the Promega CellTiter-Glo® Luminescent Cell Viability Assay, MTT cell proliferation assay (ATCC® 30-1010K) or cell counting. […] In Table 8, A represents less than 20% of increased proliferation of hFDPCs, B represents 20-40%, and C represents larger than 40% of increased proliferation of hFDPCs. For this assay, hFDPCs were cultured on tissue culture-treated plastic and supplemented with 6-bromoindirubin-39-Oxime (BIO), recombinant bone morphogenetic protein-2 (BMP-2), and basic fibroblast growth factor (FGFβ), whose combination was previously found to preserve in situ dermal papilla gene signatures.

[2] = tested on: follicle dermal papilla cells; test: Reactive oxygen species (ROS) activity in follicle dermal papilla cells; type: cell-based; details: 5 μg/mL, 24 hr, relative to vehicle control 0.1% v/v DMSO
Experimental: Normalized reactive oxygen species (ROS) activity in follicle dermal papilla cells were analyzed after treatment with 5 μg/mL exemplary compounds relative to vehicle control (0.1% v/v DMSO) after 24 hr. The increase in ROS levels is harmful on cell mhemeostasis, structures, and functions and results in oxidative stress.

female subjects = test: Clinical consumer perception study; type: in vivo, human; details: 0.02% v/v water-based formula every 2 days, 6 weeks, 32 subjects completed
Experimental: Photographs were taken after 6 weeks. Subjects were female and ranged in age from 27-65 years. Subjects used a simple, water-based formula containing an exemplary compound (at 0.02% v/v) every 2 days in the morning or night on dry or towel-dried hair. Approximately 2 mL was applied directly to the hairline. No randomization was required for the study and subjects were blinded to the name of the test material.
The clinical test was performed by Eurofins|CRL, Inc. The test followed established, standardized procedures for clinical testing designed to ensure the well-being of clinical study subjects and the generation of reliable study data. Subjects were female and ranged in age from 27-65 years. Subjects used a simple, water-based formula containing a exemplary compound, VII-3 (at 0.02% v/v) every 2 days in the morning or night on dry or towel-dried hair. Approximately 2 mL was applied directly to the hairline. No randomization was required for the study and subjects were blinded to the name of the test material.
Photographs of subjects' hair were taken 6 weeks after the treatment with the representative compounds (FIG. 6). Subjects were female and ranged in age from 27-65 years. Subjects used a simple, water-based formula containing an exemplary compound VII-3 (at 0.02% v/v) every 2 days in the morning or night on dry or towel-dried hair. […]

[3] = tested on: Human follicle papilla cells; test: Functional stability across pH and temperature (follicle papilla cell proliferation); type: cell-based; details: pre-treated 7 days in pH-adjusted water at varying temperatures; cells dosed 5 μg/mL, 48 hr
Experimental: FIGS. 7A and 7B show normalized proliferation follicle papilla cell proliferation after 48 hr following treatment with the exemplary compound (VII-3) pre-treated across a range of pH conditions (FIG. 7A) and temperature conditions (FIG. 7B). Data represents mean±s.d. and representative of n=2 donors.
An exemplary compound (VII-3) was prepared in various solvents (DMSO; dimethyl sulfoxide, DMI; dimethyl isosorbide, or a 1:1 mixture of dimethyl isosorbide and ethanol), the diluted in pH-adjusted water and left at varying temperatures for 7 days. Human follicle papilla cells were dosed at 5 μg/mL with the exemplary compound and further supplemented with 6-bromoindirubin-39-Oxime (BIO), recombinant bone morphogenetic protein-2 (BMP-2), and basic fibroblast growth factor (FGFβ), whose combination was previously found to preserve in vivo dermal papilla gene signatures. Normalized proliferation follicle papilla cell proliferation was analyzed after 48 hr following the treatment with the exemplary compound pre-treated across a range of pH conditions (FIG. 7A) and temperature conditions (FIG. 7B). Data represents mean±s.d. and representative of n=2 donors.

| Structure (SMILES) | sensitizing potential, normalized ARE-luciferase activity (Nrf2-ARE pathway) | genotoxic effects, normalized β-galactosidase activity (bacteria) | normalized caspase 3/7 activity (HepG2 cells) | micronuclei formation / genotoxic effect in TK.6 cells (TK.6 lymphoblasts) | Percent Increase Proliferation of hFDPCs (%) [1] | normalized ROS level [2] | Adverse effects (female subjects) | functional stability (normalized follicle papilla cell proliferation after pre-treatment) [3] |
| --- | --- | --- | --- | --- | --- | --- | --- | --- |
| COC(=O)c1c(S(C)(=O)=O)[nH]c(-c2ccccc2)nc1=O [VII-1] | exhibited sensitizing potential | did not exhibit any genotoxic effects | did not exhibit any caspase activation | do not promote any micronuclei formation | – | – | – | – |
| C=CCc1cc(/C=C2\C(=O)NC(=S)N(c3ccccc3OC)C2=O)cc(OCC)c1O [Compound I-18, 4,6(1H,5H)-Pyrimidinedione, 5-[[3-ethoxy-4-hydroxy-5-(2-propen-1-yl)phenyl]methylene]dihydro-1-(2-methoxyphenyl)-2-thioxo-] | – | – | – | – | B (B represents 20-40%) | higher than other compounds | – | – |
| CCC(=O)N1CCN(c2nnc(-c3ccc(C)cc3)c3ccccc23)CC1 [II-4, 1-Propanone, 1-[4-[4-(4-methylphenyl)-1-phthalazinyl]-1-piperazinyl]-] | – | did not exhibit any genotoxic effects | did not exhibit any caspase activation | do not promote any micronuclei formation | – | – | – | – |
| CSc1nc(-c2ccco2)nn1S(C)(=O)=O [VII-3, 1H-1,2,4-Triazole, 3-(2-furanyl)-1-(methylsulfonyl)-5-(methylthio)-] | – | did not exhibit any genotoxic effects | did not exhibit any caspase activation | – | – | – | 0/32 (0%) | functionally stable across physiologically-relevant pH and temperature ranges |
